System: HBV rcDNA
Experiment: HepDE19 assay with bDNA quantitation of HBV rcDNA
Assay type: cell-based, hepatitis B virus
Settings: HepDE19 assay, inhibition of formation of rcDNA; read-out: DE-19bDNA EC50
Protocol: HepDE19 Assay with bDNA Quantitation of HBV rcDNA:
HepDE19 cell culture system is a HepG2 (human hepatocarcinoma) derived cell line that supports HBV DNA replication and cccDNA formation in a tetracycline (Tet)-regulated manner and produces HBV rcDNA and a detectable reporter molecule dependent on the production and maintenance of cccDNA (Guo, et al., 2007, J. Virol. 81:12472-12484).
HepDE19 (50,000 cells/well) were plated in 96-well collagen-coated tissue-culture treated microtiter plates in DMEM/F12 medium supplemented with 10% fetal bovine serum, 1% penicillin-streptomycin and 1 μg/mL tetracycline and incubated in a humidified incubator at 37° C. and 5% CO2 overnight. Next day, the cells were switched to fresh medium without tetracycline and incubated for 4 hours at 37° C. and 5% CO2. The cells were treated with fresh Tet-free medium with compounds at concentrations starting at 25 μM and a serial, […], 8-point, titration series in duplicate. The final DMSO concentration in the assay was 0.5%. The plates were incubated for 7 days in a humidified incubator at 37° C. and 5% CO2. Following a 7 day-incubation, the level of rcDNA present in the inhibitor-treated wells was measured using a Quantigene 2.0 bDNA assay kit (Affymetrix, Santa Clara, Calif.) with HBV specific custom probe set and manufacturers instructions. Concurrently, the effect of compounds on cell viability was assessed using replicate plates, plated at a density of 5,000 cells/well and incubated for 4 days, to determine the ATP content as a measure of cell viability using the cell-titer glo reagent (CTG; Promega Corporation, Madison, Wis.) as per manufacturer's instructions. The plates were read using a Victor luminescence plate reader (PerkinElmer Model 1420 Multilabel counter) and the relative luminescence units (RLU) data generated from each well was calculated as % inhibition of the untreated control wells and analyzed using XL-Fit module in Microsoft Excel to determine EC50 and EC90 (bDNA) and CC50 (CTG) values using a 4-parameter curve fitting algorithm.

Question: Which EC50 does the source give for CCCCN(C(=O)Nc1ccc(F)c(Cl)c1)C(C)c1cnc(OC)c2ccccc12 (single isomer, unassigned) [Compound 62, 1-Butyl-3-(3-chloro-4-fluorophenyl)-1-(1-(1-methoxyisoquinolin-4-yl)ethyl)urea] here?
Answer: 7.1 µM

Question: COc1ncc(C(C)N(CC2CC2)C(=O)Nc2ccc(F)c(Cl)c2)c2ccccc12 (single isomer, unassigned) [Compound 63, 3-(3-Chloro-4-fluorophenyl)-1-(cyclopropylmethyl)-1-(1-(1-methoxyisoquinolin-4-yl)ethyl)urea] was tested. Which EC50 did it give?
Answer: 5.8 µM

Question: For COc1ncc(C(C)N(CC2CC2)C(=O)Nc2ccc(F)c(Cl)c2)c2ccccc12 (single isomer, unassigned) [Compound 64, 3-(3-Chloro-4-fluorophenyl)-1-(cyclopropylmethyl)-1-(1-(1-methoxyisoquinolin-4-yl)ethyl)urea], which EC50 is on record?
Answer: 0.12 µM

Question: With CC(c1c[nH]c(=O)c2ccccc12)N(C(=O)Nc1ccc(F)c(Cl)c1)C1CC1 (single isomer, unassigned) [Compound 67, 3-(3-Chloro-4-fluorophenyl)-1-cyclopropyl-1-(1-(1-oxo-1,2-dihydroisoquinolin-4-yl)ethyl)urea] as the compound, how does the EC50 read?
Answer: 7.9 µM

Question: How did the EC50 turn out when CC(c1c[nH]c(=O)c2ccccc12)N(C(=O)Nc1ccc(F)c(Cl)c1)C1CC1 (single isomer, unassigned) [Compound 68, 3-(3-Chloro-4-fluorophenyl)-1-cyclopropyl-1-(1-(1-oxo-1,2-dihydroisoquinolin-4-yl)ethyl)urea] was run?
Answer: 0.06 µM

Question: With COCCN(C(=O)Nc1ccc(F)c(Cl)c1)C(C)c1cnc(OC)c2ccccc12 (single isomer, unassigned) [Compound 72, 3-(3-Chloro-4-fluorophenyl)-1-(2-methoxyethyl)-1-(1-(1-methoxyisoquinolin-4-yl)ethyl)urea] as the compound, how does the EC50 read?
Answer: 21 µM

Question: With COCCN(C(=O)Nc1ccc(F)c(Cl)c1)C(C)c1cnc(OC)c2ccccc12 (single isomer, unassigned) [Compound 73, 3-(3-Chloro-4-fluorophenyl)-1-(2-methoxyethyl)-1-(1-(1-methoxyisoquinolin-4-yl)ethyl)urea] as the compound, how does the EC50 read?
Answer: 0.78 µM

Question: CCN(C(=O)Nc1ccc(F)c(Cl)c1)C(c1c[nH]c(=O)c2ccccc12)C(F)(F)F (single isomer, unassigned) [Compound 74, 3-(3-chloro-4-fluorophenyl)-1-ethyl-1-(2,2,2-trifluoro-1-(1-oxo-1,2-dihydroisoquinolin-4-yl)ethyl)urea] was tested. Which EC50 did it give?
Answer: 15 µM

Question: With CCN(C(=O)Nc1ccc(F)c(Cl)c1)C(c1c[nH]c(=O)c2ccccc12)C(F)(F)F (single isomer, unassigned) [Compound 76, 3-(3-Chloro-4-fluorophenyl)-1-ethyl-1-(2,2,2-trifluoro-1-(1-oxo-1,2-dihydroisoquinolin-4-yl)ethyl)urea] as the compound, how does the EC50 read?
Answer: 1.4 µM

Question: COc1ncc(C(CCO)NC(=O)Nc2ccc(F)c(Cl)c2)c2ccccc12 (single isomer, unassigned) [Compound 77, 1-(3-Chloro-4-fluorophenyl)-3-(3-hydroxy-1-(1-methoxyisoquinolin-4-yl)propyl)urea] was tested. Which EC50 did it give?
Answer: 7.4 µM

Question: How did the EC50 turn out when COc1ncc(C(CCO)NC(=O)Nc2ccc(F)c(Cl)c2)c2ccccc12 (single isomer, unassigned) [Compound 78, 1-(3-Chloro-4-fluorophenyl)-3-(3-hydroxy-1-(1-methoxyisoquinolin-4-yl)propyl)urea] was run?
Answer: 24 µM

Question: Which EC50 does the source give for COCCCN(C(=O)Nc1ccc(F)c(Cl)c1)C(C)c1cnc(OC)c2ccccc12 (single isomer, unassigned) [Compound 81, 3-(3-Chloro-4-fluorophenyl)-1-(1-(1-methoxyisoquinolin-4-yl)ethyl)-1-(3-methoxypropyl)urea] here?
Answer: 8.6 µM

Question: Which EC50 does the source give for COCCCN(C(=O)Nc1ccc(F)c(Cl)c1)C(C)c1cnc(OC)c2ccccc12 (single isomer, unassigned) [Compound 82, 3-(3-Chloro-4-fluorophenyl)-1-(1-(1-methoxyisoquinolin-4-yl)ethyl)-1-(3-methoxypropyl)urea] here?
Answer: 0.32 µM

Question: How did the EC50 turn out when CC(c1c[nH]c(=O)c2ccccc12)N(CC1CC1)C(=O)Nc1ccc(F)c(Cl)c1 (single isomer, unassigned) [Compound 85, 3-(3-Chloro-4-fluorophenyl)-1-(cyclopropylmethyl)-1-(1-(1-oxo-1,2-dihydroisoquinolin-4-yl)ethyl)urea] was run?
Answer: 0.46 µM

Question: With CC(c1c[nH]c(=O)c2ccccc12)N(CC1CC1)C(=O)Nc1ccc(F)c(Cl)c1 (single isomer, unassigned) [Compound 86, 3-(3-Chloro-4-fluorophenyl)-1-(cyclopropylmethyl)-1-(1-(1-oxo-1,2-dihydroisoquinolin-4-yl)ethyl)urea] as the compound, how does the EC50 read?
Answer: 0.02 µM

Question: With CC(c1c[nH]c(=O)c2ccccc12)N(CCC(=O)N(C)C)C(=O)Nc1ccc(F)c(Cl)c1 (single isomer, unassigned) [Compound 105, 3-(3-(3-Chloro-4-fluorophenyl)-1-(1-(1-oxo-1,2-dihydroisoquinolin-4-yl)ethyl)ureido)-N,N-dimethylpropanamide] as the compound, how does the EC50 read?
Answer: 3.4 µM

Question: With CC(c1c[nH]c(=O)c2ccccc12)N(CCC(=O)N(C)C)C(=O)Nc1ccc(F)c(Cl)c1 (single isomer, unassigned) [Compound 106, 3-(3-(3-Chloro-4-fluorophenyl)-1-(1-(1-oxo-1,2-dihydroisoquinolin-4-yl)ethyl)ureido)-N,N-dimethylpropanamide] as the compound, how does the EC50 read?
Answer: 0.08 µM

Question: With CC(c1c[nH]c(=O)c2ccccc12)N(CCS(C)(=O)=O)C(=O)Nc1ccc(F)c(Cl)c1 (single isomer, unassigned) [Compound 107, 3-(3-Chloro-4-fluorophenyl)-1-(2-(methylsulfonyl)ethyl)-1-(1-(1-oxo-1,2-dihydroisoquinolin-4-yl)ethyl)urea] as the compound, how does the EC50 read?
Answer: 17 µM

Question: Which EC50 does the source give for CC(c1c[nH]c(=O)c2ccccc12)N(CCS(C)(=O)=O)C(=O)Nc1ccc(F)c(Cl)c1 (single isomer, unassigned) [Compound 108, 3-(3-Chloro-4-fluorophenyl)-1-(2-(methylsulfonyl)ethyl)-1-(1-(1-oxo-1,2-dihydroisoquinolin-4-yl)ethyl)urea] here?
Answer: 0.05 µM

Same assay, conditions: Hepatitis B virus, HepDE19, HepDE19 assay, inhibition of formation of rcDNA; read-out: DE-19bDNA EC50

Question: CCN(C(=O)Nc1ccc(F)c(Cl)c1)C(c1cnc(OC)c2ccccc12)C(F)(F)F (single isomer, unassigned) [Compound 75, 3-(3-Chloro-4-fluorophenyl)-1-ethyl-1-(2,2,2-trifluoro-1-(1-methoxyisoquinolin-4-yl)ethyl)urea] was tested. Which EC50 did it give?
Answer: 4.5 µM

Same assay, conditions: Hepatitis B virus, HepDE19, read-out: DE-19bDNA EC50 (μM), HepDE19 assay, inhibition of formation of rcDNA

Question: For CCN(C(=O)Nc1ccc(F)c(Cl)c1)C(c1ccccc1)c1c[nH]c(=O)c2ccccc12 (single isomer, unassigned) [Compound 69, 3-(3-Chloro-4-fluorophenyl)-1-ethyl-1-((1-oxo-1,2-dihydroisoquinolin-4-yl)(phenyl)methyl)urea], which EC50 is on record?
Answer: 9.7 µM

Question: Which EC50 does the source give for C[C@H](c1c[nH]c(=O)c2ccccc12)N(C)C(=O)Nc1ccnc(C(F)(F)F)c1 (single isomer, unassigned) [Compound 95] here?
Answer: 1.1 µM

Same assay, conditions: read-out: DE-19bDNA EC50; HepDE19 assay, inhibition of formation of rcDNA

Question: COCCN(C(=O)Nc1ccc(F)c(Cl)c1)C(C)c1c[nH]c(=O)c2ccccc12 (single isomer, unassigned) [Compound 65, 3-(3-Chloro-4-fluorophenyl)-1-(2-methoxyethyl)-1-(1-(1-oxo-1,2-dihydroisoquinolin-4-yl)ethyl)urea] was tested. Which EC50 did it give?
Answer: 10 µM

Question: Which EC50 does the source give for COCCN(C(=O)Nc1ccc(F)c(Cl)c1)C(C)c1c[nH]c(=O)c2ccccc12 (single isomer, unassigned) [Compound 66, 3-(3-Chloro-4-fluorophenyl)-1-(2-methoxyethyl)-1-(1-(1-oxo-1,2-dihydroisoquinolin-4-yl)ethyl)urea] here?
Answer: 0.09 µM

Question: How did the EC50 turn out when CCN(C(=O)Nc1ccc(F)c(Cl)c1)C(c1ccccc1)c1c[nH]c(=O)c2ccccc12 (single isomer, unassigned) [Compound 70, 3-(3-Chloro-4-fluorophenyl)-1-ethyl-1-((1-oxo-1,2-dihydroisoquinolin-4-yl)(phenyl)methyl)urea] was run?
Answer: 16 µM

Question: For CCCCN(C(=O)Nc1ccc(F)c(Cl)c1)C(C)c1c[nH]c(=O)c2ccccc12 (single isomer, unassigned) [Compound 83, 1-Butyl-3-(3-chloro-4-fluorophenyl)-1-(1-(1-oxo-1,2-dihydroisoquinolin-4-yl)ethyl)urea], which EC50 is on record?
Answer: 0.86 µM

Question: CCCCN(C(=O)Nc1ccc(F)c(Cl)c1)C(C)c1c[nH]c(=O)c2ccccc12 (single isomer, unassigned) [Compound 84, 1-Butyl-3-(3-chloro-4-fluorophenyl)-1-(1-(1-oxo-1,2-dihydroisoquinolin-4-yl)ethyl)urea] was tested. Which EC50 did it give?
Answer: 0.01 µM

Source: patent US20230045421A1 (priority 2018, published 2023)
